In patent US20230081426A1, “COMPOUNDS AND METHODS FOR KRAS MODULATION AND INDICATIONS THEREFOR” (Plexxikon Inc., priority 2020, published 2023):

Experiments:
[1] = target: T1, G12D-mutant human KRAS (amino acid residues 1-188) (Homo sapiens, UniProt P01116, G12D); assay: KRAS Binding Disruption Assay (AlphaScreen; biotinylated KRpep-2d analogue or RAF1-RBD), G12D; settings: KRAS G12D; geometric mean; read-out: KRAS GMean IC50 (uM) MUTATION: G12D
T1 construct: G12D or G12C-mutant human KRAS (amino acid residues 1-188) with FLAG tag; made in house; host or cells: E. coli
T1 sequence (P01116 1-188 isoform P01116-2 G12D): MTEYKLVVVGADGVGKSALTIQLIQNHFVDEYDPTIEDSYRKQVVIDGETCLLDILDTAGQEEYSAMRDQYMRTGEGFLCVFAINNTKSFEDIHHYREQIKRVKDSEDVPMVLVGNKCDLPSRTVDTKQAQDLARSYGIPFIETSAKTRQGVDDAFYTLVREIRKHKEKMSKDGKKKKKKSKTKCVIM
How it was run: (§1)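 Compounds are titrated against 5-20 nM mutant KRAS and 5-20 nM of either a biotinylated KRpep-2d analogue or RAF1-RBD, incubated 1 h at 25° C. Disruption is detected as reduced Alpha signal after 1 h with donor and acceptor beads at 10 μg/mL.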

[2] = target: T2, G12C-mutant human KRAS (amino acid residues 1-188) (Homo sapiens, UniProt P01116, G12C); assay: KRAS Binding Disruption Assay (AlphaScreen; biotinylated KRpep-2d analogue or RAF1-RBD), G12C; settings: geometric mean, read-out: KRAS GMean IC50 (uM) MUTATION: G12C
T2 construct: G12D or G12C-mutant human KRAS (amino acid residues 1-188) with FLAG tag; made in house; host or cells: E. coli
T2 sequence (P01116 1-188 isoform P01116-2 G12C): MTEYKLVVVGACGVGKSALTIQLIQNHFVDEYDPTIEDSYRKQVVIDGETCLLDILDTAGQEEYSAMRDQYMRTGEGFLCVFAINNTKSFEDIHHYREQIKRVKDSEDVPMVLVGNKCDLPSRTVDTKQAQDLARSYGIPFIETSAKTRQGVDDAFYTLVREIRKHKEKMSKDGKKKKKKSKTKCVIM
How it was run: as §1

IC50 [1] [µM] | IC50 [2] [µM] | Compound
0.0001 to 10 | 10 to 100 | CN(C)C(C)(C)COc1nc(N2C[C@H]3CC[C@@H](C2)N3)c2ccc(-c3cc(O)cc4ccccc34)c(F)c2n1 [P-0736, 4-(4-((1R,5S)-3,8-diazabicyclo[3.2.1]octan-3-yl)-2-(2-(dimethylamino)-2-methylpropoxy)-8-fluoroquinazolin-7-yl)naphthalen-2-ol]
0.0001 to 10 | 100 to 1000 | CN1CCC[C@H]1COc1nc(N2C[C@H]3CC[C@@H](C2)N3)c2ccc(-c3cccc4ccccc34)c(F)c2n1 [P-0783, 4-((1R,5S)-3,8-diazabicyclo[3.2.1]octan-3-yl)-8-fluoro-2-(((S)-1-methylpyrrolidin-2-yl)methoxy)-7-(naphthalen-1-yl)quinazoline]
0.0001 to 10 | 0.0001 to 10 | Oc1cc(-c2ccc3c(N4C[C@H]5CC[C@@H](C4)N5)nc(N4CC(O)(C5CC5)C4)nc3c2F)c2ccccc2c1 [P-0636, 1-(4-((1R,5S)-3,8-diazabicyclo[3.2.1]octan-3-yl)-8-fluoro-7-(3-hydroxynaphthalen-1-yl)quinazolin-2-yl)-3-cyclopropylazetidin-3-ol]
0.0001 to 10 | 10 to 100 | CNC(=O)COc1nc(N2C[C@H]3CC[C@@H](C2)N3)c2ccc(-c3cc(O)cc4ccccc34)c(F)c2n1 [P-0733, 2-((4-((1R,5S)-3,8-diazabicyclo[3.2.1]octan-3-yl)-8-fluoro-7-(3-hydroxynaphthalen-1-yl)quinazolin-2-yl)oxy)-N-methylacetamide]
10 to 100 | 10 to 100 | Cc1cccc2c(-c3c(F)cc4c(N5C[C@H]6CC[C@@H](C5)N6)nc(OC[C@@H]5CCCN5C)nc4c3F)c[nH]c12 [P-0795, 4-((1R,5S)-3,8-diazabicyclo[3.2.1]octan-3-yl)-6,8-difluoro-7-(7-methyl-1H-indol-3-yl)-2-(((S)-1-methylpyrrolidin-2-yl)methoxy)quinazoline]
0.0001 to 10 | 10 to 100 | Cc1cc(COc2nc(N3C[C@H]4CC[C@@H](C3)N4)c3ccc(-c4cc(O)cc5ccccc45)c(F)c3n2)no1 [P-0777, 4-(4-((1R,5S)-3,8-diazabicyclo[3.2.1]octan-3-yl)-8-fluoro-2-((5-methylisoxazol-3-yl)methoxy)quinazolin-7-yl)naphthalen-2-ol]
0.0001 to 10 | 0.0001 to 10 | CN1CCC[C@H]1COc1nc(N2C[C@H]3CC[C@@H](C2)O3)c2ccc(-c3cc(O)cc4ccccc34)c(F)c2n1 [P-0114, 4-(4-((1R,5S)-8-oxa-3-azabicyclo[3.2.1]octan-3-yl)-8-fluoro-2-(((S)-1-methylpyrrolidin-2-yl)methoxy)quinazolin-7-yl)naphthalen-2-ol]
0.0001 to 10 | 10 to 100 | Oc1cc(-c2ccc3c(N4C[C@H]5CC[C@@H](C4)N5)nc(OCCn4cncn4)nc3c2F)c2ccccc2c1 [P-0689, 4-(2-(2-(1H-1,2,4-triazol-1-yl)ethoxy)-4-((1R,5S)-3,8-diazabicyclo[3.2.1]octan-3-yl)-8-fluoroquinazolin-7-yl)naphthalen-2-]
0.0001 to 10 | 0.0001 to 10 | Fc1ccc2[nH]cc(-c3ccc4c(N5C[C@H]6CC[C@@H](C5)N6)nc(OCC56CCCN5CCC6)nc4c3F)c2c1F [P-0763, 4-((1R,5S)-3,8-diazabicyclo[3.2.1]octan-3-yl)-7-(4,5-difluoro-1H-indol-3-yl)-8-fluoro-2-((tetrahydro-1H-pyrrolizin-7a(5H)-yl)methoxy)quinazoline]
0.0001 to 10 | 0.0001 to 10 | Fc1cc2c(N3C[C@H]4CC[C@@H](C3)N4)nc(OCC34CCCN3CCC4)nc2c(F)c1-c1c[nH]c2ccc(F)c(F)c12 [P-0788, 4-((1R,5S)-3,8-diazabicyclo[3.2.1]octan-3-yl)-7-(4,5-difluoro-1H-indol-3-yl)-6,8-difluoro-2-((tetrahydro-1H-pyrrolizin-7a(5H)-yl)methoxy)quinazoline]
0.0001 to 10 | 10 to 100 | CC(C)(O)COc1nc(N2C[C@H]3CC[C@@H](C2)N3)c2ccc(-c3cc(O)cc4ccccc34)c(F)c2n1 [P-0768, 4-(4-((1R,5S)-3,8-diazabicyclo[3.2.1]octan-3-yl)-8-fluoro-2-(2-hydroxy-2-methylpropoxy)quinazolin-7-yl)naphthalen-2-ol]
0.0001 to 10 | 10 to 100 | CN1CCC[C@H]1COc1nc(N2C[C@H]3CC[C@@H](C2)N3)c2ccc(-c3cccc4cccc(Cl)c34)c(F)c2n1 [P-0782, 4-((1R,5S)-3,8-diazabicyclo[3.2.1]octan-3-yl)-7-(8-chloronaphthalen-1-yl)-8-fluoro-2-(((S)-1-methylpyrrolidin-2-yl)methoxy)quinazoline]
0.0001 to 10 | 100 to 1000 | Oc1cc(-c2ccc3c(N4C[C@H]5CC[C@@H](C4)N5)nc(NCC4(O)CCC4)nc3c2F)c2ccccc2c1 [P-0681, 4-(4-((1R,5S)-3,8-diazabicyclo[3.2.1]octan-3-yl)-8-fluoro-2-(((1-hydroxycyclobutyl)methyl)amino)quin-azolin-7-yl)naphthalen-2-ol]
0.0001 to 10 | 100 to 1000 | CN1CCN(c2nc(N3C[C@H]4CC[C@@H](C3)N4)c3ccc(-c4cc(O)cc5ccccc45)c(F)c3n2)CC1 [P-0684, 4-(4-((1R,5S)-3,8-diazabicyclo[3.2.1]octan-3-yl)-8-fluoro-2-(4-methylpiperazin-1-yl)quinazolin-7-yl)naphthalen-2-ol]
0.0001 to 10 | 10 to 100 | CCc1cccc2[nH]cc(-c3ccc4c(N5C[C@H]6CC[C@@H](C5)N6)nc(OCC56CCCN5CCC6)nc4c3)c12 [P-0698, 4-((1R,5S)-3,8-diazabicyclo[3.2.1]octan-3-yl)-7-(4-ethyl-1H-indol-3-yl)-2-((tetrahydro-1H-pyrrolizin-7a(5H)-yl)methoxy)quinazoline]
0.0001 to 10 | 0.0001 to 10 | CCc1cccc2[nH]cc(-c3ccc4c(N5C[C@H]6CC[C@@H](C5)N6)nc(OCC56CCCN5CCC6)nc4c3F)c12 [P-0699, 4-((1R,5S)-3,8-diazabicyclo[3.2.1]octan-3-yl)-7-(4-ethyl-1H-indol-3-yl)-8-fluoro-2-((tetrahydro-1H-pyrrolizin-7a(5H)-yl)methoxy)quinazoline]
0.0001 to 10 | 100 to 1000 | Oc1cc(-c2ccc3c(N4C[C@H]5CC[C@@H](C4)N5)nc(NCC4CCOCC4)nc3c2F)c2ccccc2c1 [P-0701, 4-(4-((1R,5S)-3,8-diazabicyclo[3.2.1]octan-3-yl)-8-fluoro-2-(((tetrahydro-2H-pyran-4-yl)methyl)amino)quinazolin-7-yl)naphthalen-2-ol]
0.0001 to 10 | 0.0001 to 10 | NCCCN1CCC[C@H]1COc1nc(N2C[C@H]3CC[C@@H](C2)N3)c2ccc(-c3cc(O)cc4ccccc34)c(F)c2n1 [P-0675, 4-(2-(((S)-1-(3-aminopropyl)pyrrolidin-2-yl)methoxy)-4-((1R,5S)-3,8-diazabicyclo[3.2.1]octan-3-yl)-8-fluoroquinazolin-7-yl)naphthalen-2-ol]
0.0001 to 10 | 10 to 100 | O=C(O)CCOc1nc(N2C[C@H]3CC[C@@H](C2)N3)c2ccc(-c3cc(O)cc4ccccc34)c(F)c2n1 [P-0743, 3-((4-((1R,5S)-3,8-diazabicyclo[3.2.1]octan-3-yl)-8-fluoro-7-(3-hydroxynaphthalen-1-yl)quinazolin-2-yl)oxy)propanoic acid]
0.0001 to 10 | 100 to 1000 | Oc1cc(-c2ccc3c(N4C[C@H]5CC[C@@H](C4)N5)nc(N4CC(O)(C(F)(F)F)C4)nc3c2F)c2ccccc2c1 [P-0706, 1-(4-((1R,5S)-3,8-diazabicyclo[3.2.1]octan-3-yl)-8-fluoro-7-(3-hydroxynaphthalen-1-yl)quinazolin-2-yl)-3-(trifluoromethyl)azetidin-3-ol]
0.0001 to 10 | 100 to 1000 | Oc1cc(-c2ccc3c(N4C[C@H]5CC[C@@H](C4)N5)nc(N4C[C@@H](O)[C@@H](O)C4)nc3c2F)c2ccccc2c1 [P-0687, (3S,4R)-1-(4-((1R,5S)-3,8-diazabicyclo[3.2.1]octan-3-yl)-8-fluoro-7-(3-hydroxynaphthalen-1-yl)quinazolin-2-yl)pyrrolidine-3,4-diol]
0.0001 to 10 | 0.0001 to 10 | CC(C)(CO)COc1nc(N2C[C@H]3CC[C@@H](C2)N3)c2ccc(-c3cc(O)cc4ccccc34)c(F)c2n1 [P-0719, 4-(4-((1R,5S)-3,8-diazabicyclo[3.2.1]octan-3-yl)-8-fluoro-2-(3-hydroxy-2,2-dimethylpropoxy)quinazolin-7-yl)naphthalen-2-ol]
0.0001 to 10 | 10 to 100 | Oc1cc(-c2ccc3c(N4C[C@H]5CC[C@@H](C4)N5)nc(CN[C@H]4CCOC4)nc3c2)c2ccccc2c1 [P-0671, 4-(4-((1R,5S)-3,8-diazabicyclo[3.2.1]octan-3-yl)-2-((((S)-tetrahydrofuran-3-yl)amino)methyl)quinazolin-7-yl)naphthalen-2-ol]
0.0001 to 10 | 10 to 100 | COc1ccc(CNCCc2nc(N3C[C@H]4CC[C@@H](C3)N4)c3ccc(-c4cc(O)cc5ccccc45)c(F)c3n2)cc1 [P-0772, 4-(4-((1R,5S)-3,8-diazabicyclo[3.2.1]octan-3-yl)-8-fluoro-2-(2-((4-methoxybenzyl)amino)ethyl)quinazolin-7-yl)naphthalen-2-ol]
10 to 100 | 100 to 1000 | CN1CCC[C@H]1COc1nc(N2C[C@H]3CC[C@@H](C2)N3)c2ccc(-c3nccc4cccc(Cl)c34)c(F)c2n1 [P-0728, 4-((1R,5S)-3,8-diazabicyclo[3.2.1]octan-3-yl)-7-(8-chloroisoquinolin-1-yl)-8-fluoro-2-(((S)-1-methylpyrrolidin-2-yl)methoxy)quinazoline]
0.0001 to 10 | 10 to 100 | Oc1cc(-c2ccc3c(N4C[C@H]5CC[C@@H](C4)N5)nc(OC4CCC(O)CC4)nc3c2F)c2ccccc2c1 (stereo partly drawn) [P-0787, 4-(4-((1R,5S)-3,8-diazabicyclo[3.2.1]octan-3-yl)-8-fluoro-2-((4-hydroxycyclohexyl)oxy)quinazolin-7-yl)naphthalen-2-ol]
